How the values were obtained:
[1] = test system: FVB mouse lung microvascular endothelial cells (MLuMEC FVB); experiment: Alamar Blue cell viability, MLuMEC; type: cell-based; conditions: 24 h
Experimental: FVB mouse lung microvascular endothelial cells (MLuMEC FVB) and murine endothelial cells isolated from aorta-gonad-mesonephros (AGM) region of 10.5 dpc embryos (MAgEC 10.5) were cultured in OptiMEM with Glutamax-I (Gibco Invitrogen) supplemented with 2% fetal bovine serum (FBS), 0.4% gentamycin and 0.2% fungizone. […]
(§1) 10% FBS, 1% peniciline and streptomycin and 0.2% fungizone. Cells were routinely cultured at 37 °C in a humidified incubator in 5% CO2 atmosphere.
(§2) Cell viability was measured using Alamar Blue assay. Cells were seeded on 96 wells plate with density of 1 × 10^4 cells per cm2 and cultured for 1 day. Then cells were incubated with various concentrations of compounds in medium with or without 2% FBS for 24 and 48 h under normoxic and hypoxic conditions in the darkness. Next cells were washed with PBS and incubated in Alamar Blue solution for 3 h. The cell viability was quantified at 605 nm using 560 nm excitation light (VICTOR 3V multilabel plate reader PerkinElmer or Tecan Infinite200 Reader). Experiments were performed in triplicates and each experiment was performed at least three times to get the mean values ± standard derivation. The viability was calculated with regard to the untreated cells control. The IC50 values were determined using Hill equation (Origin 9.0). […]

[2] = test system: Human lung adenocarcinoma epithelial cell line (A549); experiment: Alamar Blue cell viability, A549; type: cell-based; conditions: A549, 24 h
Experimental: as §1, §2

[3] = Luminescence quantum yield and lifetime in aqueous solution; type: physicochemical
Experimental: UV–Vis absorption spectra were recorded on a Perkin Elmer Lambda 35 spectrophotometer. Luminescence measurements were performed on a spectrofluorimeter Perkin Elmer LS55. The spectra were recorded at the room temperature in aqueous solution containing small amount of DMSO (<0.008 % v/v). The emission spectra were recorded between 470 and 860 nm upon excitation at 463 nm. The average of three scans was subjected to smoothing. For determination of the quantum yield of luminescence (Φ), aqueous solutions of [Ru(bpy)3]^2+ with a small amount of DMSO (<0.008 % v/v) were used as standards (Φ = 0.028 [14] and 0.042 [20] for air-equilibrium and deoxygenated conditions, respectively). The spectra were recorded for ruthenium complexes at the concentration less than 0.05 absorbance unit at the excitation wavelength. Values were calculated according to the following equation [21]: Φ=Φref×Aref/A×I/Iref×n^2/nref2, where I is the integrated intensity of luminescence, A is the optical density, and n is the refractive index, ref refers to the values for reference. The mean value from minimum three independent experiments was calculated.
The luminescence lifetime measurements were performed with a single photon counting technique using Fluorolog-3, Horiba Jobin Yvon. The excitation wavelength was set at 464 nm (NanoLed Diodes) and the average lifetime of luminescence was monitored at 621 nm. Luminescence decays were collected with 1,000 counts in the peak. The instrument response functions were measured using a light scattering solution of Ludox (colloidal silica, Sigma-Aldrich). Experiments were conducted at room temperature. The DAS6 software (HORIBA Scientific) was used for deconvolution of the obtained decays and for calculation of the lifetime values. The quality of the fit was judged by the χ ^2 parameter (the goodness of fit evaluation). One-exponential fit was determined to be an optimal description of the obtained results for the ruthenium compounds.

[4] = test system: 4T1 breast cancer cell line; experiment: Alamar Blue cell viability, 4T1; type: cell-based; conditions: 4T1, 24 h incubation
Experimental: 4T1 breast cancer cell line was cultured in RPMI-1640 (Gibco Invitrogen) with 10 % fetal bovine serum (FBS, the bovine serum albumin is a major component), 1 % penicillin and streptomycin and 0.2 % fungizone. Cells were routinely cultured at 37 °C in a humidified incubator in 5 % CO2 atmosphere. Cell viability was measured using Alamar Blue assay. Cells were seeded on 96-well plate with density of 10^4 cells per cm^2 and cultured for 24 h in medium with or without 2 % serum. Then cells were incubated with various concentrations of ruthenium compounds for 24 h in the dark. All used ruthenium complexes were freshly diluted in DMSO and then added to the appropriate medium to obtain the applied concentrations. The final DMSO concentration was kept constant at 0.05 % (v/v). Next cells were washed with PBS and incubated in AlamarBlue solution (21 times diluted in PBS) for 3 h. Alamar Blue test is based on the reduction of blue and non-fluorescent subtract (resazurin) to a pink and highly fluorescent product (resorufin) by the alive cells. Extract mechanism of the reduction is still unknown, but it is postulated that reduction occurs by mitochondrial or cytoplasmic enzymes, such as NADH dehydrogenase or diaphorase. It is still not known whether this process occurs intracellularly, at the plasma membrane surface or just in the medium as a chemical reaction. The cell viability was quantified at 605 nm using 560 nm excitation light (VICTOR 3V multilabel plate readers, PerkinElmer). Experiments were performed in triplicates and each experiment was performed at least three times to get the mean values ± standard deviation. The viability was calculated with regard to the untreated cells control. The IC50 values were determined using Hill equation (Origin 9.0): y=y0+y100-y0c^H/IC50^H+c^H

[5] = n-octan-1-ol/water partition (lipophilicity); type: physicochemical; conditions: 25 °C
Experimental: The lipophilicity of the ruthenium(II) complexes, which is referred to log P o/w (n-octan-1-ol/water partition coefficient), was measured as following. Ruthenium complexes were dissolved in n-octan-1-ol (to mM concentration), then solutions were added to water and the mixtures were stirred sufficiently for partitioning at 25 °C for 24 h. After that the mixtures were left for equilibration for another 2 h. The concentration of the compounds in the water phase was measured spectrophotometrically and P o/w value was calculated according to the equation: PO/w=coctanolbefore-cwater/cwater , where coctanolbefore is an initial concentration of ruthenium complex, c water denotes final concentration in water. The experiment was conducted in triplicates.

[6] = air-equilibrated conditions, excitation 463 nm

Row | Compound | IC50 ([1]; with serum (2%)) [µM] | IC50 ([1]; without serum) [µM] | IC50 ([2]; with serum (2%)) [µM] | IC50 ([2]; without serum) [µM] | τ, luminescence lifetime ([3]; air-equilibrated conditions) [ns] | φ, quantum yield of luminescence [3, 6] | τ, luminescence lifetime ([3]; deoxygenated conditions) [µs] | φ, quantum yield of luminescence ([3]; deoxygenated conditions) | IC50 ([4]; medium with serum (2 %)) [µM] | IC50 ([4]; medium without serum) [µM] | log P o/w [5]
1 | [Ru(dip)2(1,3-dicyclohexyl-1-[4-carbonyl-(4′-methyl-2,2′-bipyridyl)]-urea)]Cl2 [[Ru(dip)2(CH3bpy-DCU)]^2+] | 5.84 ± 0.24 | 2.28 ± 0.61 | 7.22 ± 0.34 | 5.43 ± 0.11 | 460 ± 10 | 0.0044 ± 0.0002 | 1.85 ± 0.02 | 0.0049 ± 0.0002 | 9.01 ± 1.33 | 4.71 ± 0.18 | 1.114 ± 0.012
2 | Cc1ccnc(-c2cc(C)ccn2)c1.[Ru+2].c1ccc(-c2ccnc3c2ccc2c(-c4ccccc4)ccnc23)cc1.c1ccc(-c2ccnc3c2ccc2c(-c4ccccc4)ccnc23)cc1 [[Ru(dip)2(CH3bpy-CH3)]^2+] | 8.32 ± 0.06 | 3.36 ± 0.35 | 11.6 ± 2.19 | 5.47 ± 0.87 | 690 ± 10 | 0.0254 ± 0.0009 | 2.23 ± 0.01 | 0.0778 ± 0.0016 | 9.32 ± 1.37 | 4.9 ± 0.3 | 0.484 ± 0.046
3 | Cc1ccnc(-c2cc(C(=O)[O-])ccn2)c1.[Ru+2].c1ccc(-c2ccnc3c2ccc2c(-c4ccccc4)ccnc23)cc1.c1ccc(-c2ccnc3c2ccc2c(-c4ccccc4)ccnc23)cc1 [[Ru(dip)2(CH3bpy-COO)]^+] | 18.1 ± 2.19 | 7.74 ± 1.26 | 9.79 ± 0.89 | 6.05 ± 1.87 | 530 ± 10 | 0.0226 ± 0.0012 | 1.02 ± 0.01 | 0.0429 ± 0.0004 | 13.9 ± 3 | 8.66 ± 1.47 | 1.857 ± 0.079
4 | [Ru+2].c1ccc(-c2ccccn2)nc1.c1ccc(-c2ccnc3c2ccc2c(-c4ccccc4)ccnc23)cc1.c1ccc(-c2ccnc3c2ccc2c(-c4ccccc4)ccnc23)cc1 [[Ru(dip)2(bpy)]^2+] | 11.7 ± 1.6 | 4.7 ± 0.41 | 27.7 ± 1.2 | 13.5 ± 5.3 | 760 ± 10 | 0.0367 ± 0.0004 | 2.51 ± 0.01 | 0.1245 ± 0.0004 | 13.6 ± 1.75 | 6.79 ± 1.09 | 0.328 ± 0.026
5 | O=[N+]([O-])c1nccn1CCCc1ccnc(-c2ccccn2)c1.[Ru+2].c1ccc(-c2ccnc3c2ccc2c(-c4ccccc4)ccnc23)cc1.c1ccc(-c2ccnc3c2ccc2c(-c4ccccc4)ccnc23)cc1 [[Ru(dip)2(bpy-NitroIm)]^2+] | 10.4 ± 1.31 | 6.08 ± 0.7 | 17.5 ± 5.7 | 11.8 ± 1.2 |  |  |  |  | 18.8 ± 1.29 | 10.6 ± 1.05 | 0.413 ± 0.083
